Assay results taken from US9290511B2, “Thieno-pyrimidines, useful as potassium channel inhibitors” (XENTION LIMITED, priority 2011, dated 2016).

Biological target: T1, Kir3.1/3.4 (Rattus norvegicus, UniProt P48548+P63251)
T1 construct: expressed in transfected cells
T1 sequence (P63251 1-501): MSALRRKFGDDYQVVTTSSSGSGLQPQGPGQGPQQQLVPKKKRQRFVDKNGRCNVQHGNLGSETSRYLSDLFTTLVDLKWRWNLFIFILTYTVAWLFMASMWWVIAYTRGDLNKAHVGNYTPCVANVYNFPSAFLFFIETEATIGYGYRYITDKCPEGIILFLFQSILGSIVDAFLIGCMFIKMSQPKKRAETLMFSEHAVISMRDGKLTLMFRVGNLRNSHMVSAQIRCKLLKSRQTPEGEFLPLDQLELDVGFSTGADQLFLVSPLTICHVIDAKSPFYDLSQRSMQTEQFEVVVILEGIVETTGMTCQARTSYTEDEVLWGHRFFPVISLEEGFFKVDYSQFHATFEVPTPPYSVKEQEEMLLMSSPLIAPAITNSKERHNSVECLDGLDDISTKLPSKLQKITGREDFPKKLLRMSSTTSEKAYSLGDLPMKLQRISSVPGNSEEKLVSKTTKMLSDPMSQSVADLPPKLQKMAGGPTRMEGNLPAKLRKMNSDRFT
T1 sequence (P48548 1-419): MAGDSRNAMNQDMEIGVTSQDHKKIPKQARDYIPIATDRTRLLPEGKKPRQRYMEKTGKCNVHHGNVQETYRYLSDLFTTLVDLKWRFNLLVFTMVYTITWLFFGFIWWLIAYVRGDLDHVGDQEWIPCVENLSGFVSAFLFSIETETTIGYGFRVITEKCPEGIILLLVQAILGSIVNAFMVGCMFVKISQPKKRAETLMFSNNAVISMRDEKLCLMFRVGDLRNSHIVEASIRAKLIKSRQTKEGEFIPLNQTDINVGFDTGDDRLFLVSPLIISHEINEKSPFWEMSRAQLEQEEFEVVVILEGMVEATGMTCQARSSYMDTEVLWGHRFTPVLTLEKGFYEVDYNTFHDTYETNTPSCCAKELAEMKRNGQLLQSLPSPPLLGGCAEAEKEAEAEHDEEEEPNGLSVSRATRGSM
Experiment: Kir3.1/3.4 Q-patch Method (automated patch clamp, Sophion Q-patch)
Assay type: cell-based
Details: HEK293 cells stably-expressing Kir3.1/3.4; current at -120 mV; QPatch-16 or QPatch-48
Description: For automated patch-clamp studies using the Sophion Q-patch, accumulative concentration-responses experiments were conducted to determine compound activity against the ion channel target. Voltage-clamp experiments were performed using HEK293 cells stably-expressing Kir3.1/3.4 using either a QPatch-16 or QPatch-48 (Sophion Bioscience A/S). A voltage waveform (VHold−20 mV, step to 60 mV for 100 ms, ramp to −120 mV over 500 ms, hold at −120 mV for 100 ms before returning to VHold) was repeatedly applied to the cells under voltage-clamp at a frequency of 0.1 Hz to elicit Kir3.1/3.4 currents. Mean current at −120 mV was measured in the absence (Icontrol) and presence of drug (IDrug). Assessment of passive leak was performed by removal of external potassium (IZero). Leak current was subtracted from control and drug recordings. Current inhibition (%) was calculated as {1−[(IDrug−IZero)/(IControl−IZero)]}*100. Data were fitted with a sigmoidal function to yield an IC50 and Hill coefficient. Composition of external experimental buffer was (in mM): 40 NaCl, 100 KCl, 5 CaCl2, 1 MgCl2, 10 HEPES pH 7.4. Composition of internal solution was (in mM). 40 K-gluconate, 60 KF, 20 NaCl, 5 Mg-ATP, 0.9 GTPgS, 20 EGTA, pH 7.2. Compounds were formulated in DMSO and diluted in buffer to give a final drug concentration of between […] and a final DMSO concentration of 0.1-0.3%.

| SMILES | IC50 [nM] |
| --- | --- |
| O=C1CN(c2nc(N3C4CCC3COC4)c3c(-c4ccccc4Cl)csc3n2)CCN1 [Example 424, 4-[5-(2-chlorophenyl)-4-(3-oxa-8-azabicyclo[3.2.1]octan-8-yl)thieno[2,3-d]pyrimidin-2-yl]piperazin-2-one] | < 500 |
| Clc1ccccc1-c1csc2nc(N3CCOCC3)nc(N3C4CCC3COC4)c12 [Example 425, 8-[5-(2-chlorophenyl)-2-morpholino-thieno[2,3-d]pyrimidin-4-yl]-3-oxa-8-azabicyclo[3.2.1]octane] | < 500 |
| OC1CCN(c2nc(N3C4CCC3COC4)c3c(-c4ccccc4Cl)csc3n2)C1 (stereo not shown) [Example 426, 1-[5-(2-chlorophenyl)-4-(3-oxa-8-azabicyclo[3.2.1]octan-8-yl)thieno[2,3-d]pyrimidin-2-yl]pyrrolidin-3-ol] | < 500 |
| COc1ncccc1-c1csc2ncnc(N3C4CCC3CC(CNC3CCC3)C4)c12 (stereo not shown) [Example 427, N-[[8-[5-(2-methoxy-3-pyridyl)thieno[2,3-d]pyrimidin-4-yl]-8-azabicyclo[3.2.1]octan-3-yl]methyl]cyclobutanamine] | < 500 |
